We go through 12 compounds from patent publication US20110224079A1, “SPIROHETEROCYCLIC N-OXYAMIDES AS PESTICIDES” (SYNGENTA CROP PROTECTION LLC, priority 2008, published 2011).

Each structure is given as a SMILES string. A value given as a limit tells only on which side of the number the result lay.

Assay [1] relates to Myzus persicae (green peach aphid). Put plainly: Example B2: activity against Myzus persicae, pea seedling roots in test solution (systemic/feeding, curative). The conditions noted are these: 144 h, read-out: activity (mortality).
For assay [2], the system named is Plutella xylostella (diamond back moth). Put plainly: Example B5: activity against Plutella xylostella, artificial diet in microtiter plate (larvicide, preventive). Format: in vivo. The conditions noted are these: 120 h, L2 larvae, 5 days, read-out: activity (larval mortality, antifeedant, growth regulation). Here is the method:
Activity Against Plutella xylostella (Diamond Back Moth)
(Larvicide, Feeding/Residual Contact Activity, Preventive)
24-well microtiter plate (MTP) with artificial diet is treated with test solutions by pipetting. After drying, the MTP's are infested with larvae (L2)(10-15 per well). After an incubation period of 5 days, samples are checked for larval mortality, antifeedant and growth regulation.

Assay [3] concerns Aphis Craccivora (cowpea aphid). Kind of assay: Example B11: translaminar activity against Aphis craccivora on French bean leaves. Format: in vivo. The conditions noted are these: 120 h, upper leaf side painted, aphids on lower side, 5 days. Here is the method: Translaminar Activity Against Aphis Craccivora (Cowpea Aphid)
French bean leaves (Phaseolus vulgaris) are infested with about 20 mixed age individuals on the lower leaf side using clip cages. 1 day after the infestation, the upper side of the leaves is treated with the test solution by painting. 5 days later, samples are checked for mortality.

Assay [4] has as its system Myzus persicae (green peach aphid). Put plainly: Example B17: activity against Myzus persicae on sprayed pepper plants (feeding/residual contact). The conditions noted are these: 144 h, infested pepper plants sprayed, 6 days. Format: in vivo.
Assay [5] concerns Nilaparvata lugens (brown rice planthopper). Put plainly: Example B8: activity against Nilaparvata lugens, sprayed rice seedlings (larvicide, feeding/contact). The conditions noted are these: in Oryza sativa, read-out: activity (mortality, growth regulation, effects on F1 generation).
The test system of assay [6] is Aphis Craccivora (cowpea aphid). Kind of assay: Example B9: activity against Aphis craccivora, sprayed pea seedlings (contact/feeding). Format: in vivo. The conditions noted are these: 144 h, infested pea seedlings sprayed, 6 days. An excerpt:
(§1) Activity Against Aphis Craccivora (Cowpea Aphid)
(Mixed Population, Contact/Feeding)
6 days after treatment, samples are checked for mortality.

Assay [7] concerns Bemisia tabaci (tobacco white fly). Put plainly: Example B7: activity against Bemisia tabaci, sprayed bean plants (larvicide, contact/feeding). Format: in vivo. The conditions noted are these: 504 h, bean plants with N-2 nymphs sprayed, three weeks, read-out: activity (efficacy, number of emerged adults). An outline of the steps: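 After a 4-day egg-laying period and 7 further days, bean plants bearing hatched N-2 nymphs were sprayed with test solutions (2 replicates). Emerged adults were counted three weeks later; efficacy was derived by comparison with untreated samples.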

The test system of assay [8] is Myzus persicae (green peach aphid). Put plainly: Example B1: activity against Myzus persicae, sprayed sunflower leaf discs (feeding/residual contact, preventive). The settings on record: foliar, 144 h, read-out: activity (mortality).
Assay [9] concerns Aphis Craccivora (cowpea aphid). Put plainly: Example B10: activity against Aphis craccivora, pea seedling roots in test solution (systemic/feeding). Format: in vivo. The settings on record: 144 h, roots of infested pea seedlings in test solution, 6 days.
Excerpt: as §1
(Mixed Population, Systemic/Feeding)

For assay [10], the system named is Myzus persicae (green peach aphid). Put plainly: Example B13: drench activity against Myzus persicae, pea seedlings in field soil. The settings on record: 168 h, read-out: drench activity (mortality).
Assay [11] deals with Tetranychus urticae (two-spotted spider mite). Put plainly: Example B4: activity against Tetranychus urticae, sprayed bean leaf discs (feeding/residual contact, preventive). The settings on record: foliar, 192 h, read-out: activity (egg, larval and adult mortality).
The test system of assay [12] is Thrips tabaci (onion thrips). Put plainly: Example B3: activity against Thrips tabaci, sprayed sunflower leaf discs (feeding/residual contact, preventive). Format: in vivo. The conditions noted are these: foliar, 144 h, mixed population, 6 days. The source says: Activity Against Thrips tabaci (Onion Thrips)
(Mixed Population, Feeding/Residual Contact Activity, Preventive)

Assay [13] relates to Aonidiella Aurantii (red scale). Kind of assay: Example B12: activity against Aonidiella aurantii, dipped potato tubers. Format: in vivo. The settings on record: 6-8 weeks after application, read-out: activity (number of crawlers of the next generation). An excerpt:
Activity Against Aonidiella Aurantii (Red Scale)
Treatment of potato tubers by dipping the in the test solution. One day later, tubers are infested with about 50 crawlers. 6-8 weeks after application samples are checked for the number of crawlers of the next generation (compared to the non treated samples).

Assay [14] relates to Frankliniella occidentalis (western flower thrips). Put plainly: Example B6: activity against Frankliniella occidentalis, bean leaf discs or bean plants. Format: in vivo. The conditions noted are these: foliar, 6 days (leaf discs) or 14 days (plants) after infestation, read-out: activity (reduction of treated population). Here is the method: Activity Against Frankliniella occidentalis (Western Flower Thrips)
Bean leaf discs on agar in petri dishes or bean plants in a spray chamber are treated with diluted test solutions. After drying leaf discs are cut and placed in plastic cups on the surface of an agar layer and infested with mixed population. 6 days (leaf discs) or 14 days (plants) after the infestation, samples are checked for reduction of treated population and compared to the non treated population.

For `CCOC(=O)OC1=C(c2cc(C)ccc2C)C(=O)N(OCOC)C12CCN(OC)CC2` [P1.2, Carbonic acid 3-(2,5-dimethyl-phenyl)-8-methoxy-1-methoxy-methoxy-2-oxo-1,8-diaza-spiro[4.5]dec-3-en-4-yl ester ethyl ester], the mortality at 400 ppm in [1], in assay [2], in [3], in assay [5], in assay [6] and in assay [8] was above 80% each time. The compound also displayed a mortality at 400 ppm in assay [9] above 80%. Also, the mortality at 200 ppm in [4] is at least 80%. Further, the pest or weed control at 200 ppm in assay [7] is above 80%. In assay [10], the mortality at 25 ppm was above 80%.

As to `CCOC(=O)OC1=C(c2c(C)cc(C)cc2C)C(=O)N(OC)C12CCN(OC)CC2` [P1.8], the mortality at 400 ppm in assay [1], in assay [2], in assay [11], in [3], in [12] and in assay [5] was above 80% throughout. Also, the mortality at 400 ppm in assay [6], in assay [8] and in [9] was above 80% in each case. This compound gave a mortality at 200 ppm in assay [4] of at least 80%. The pest or weed control at 200 ppm in assay [13] and in [7] was above 80% throughout. Further, in assay [10], the mortality at 25 ppm was above 80%.

For the compound `CCOC(=O)OC1=C(c2c(C)cc(C)cc2C)C(=O)N(OC2CCCO2)C12CCN(OC)CC2` (stereo not drawn) [P1.9, Carbonic acid ethyl ester 8-methoxy-2-oxo-1-(tetrahydro-furan-2-yloxy)-3-(2,4,6-trimethyl-phenyl)-1,8-diaza-spiro[4.5]dec-3-en-4-yl ester], the mortality at 400 ppm in [1], in assay [2], in assay [11], in [3], in assay [12] and in [5] was above 80% each time. Moreover, the mortality at 400 ppm in assay [8] and in assay [9] was above 80% each time. In assay [4], this compound gave a mortality at 200 ppm of at least 80%. The pest or weed control at 200 ppm in [13] and in [7] was above 80% in each case. Besides, the pest or weed control at 400 ppm in assay [14] was above 80%. Further, in assay [10], the mortality at 25 ppm was above 80%.

`C=CCON1C(=O)C(c2c(C)cc(C)cc2C)=C(OC(=O)OCC)C12CCN(OC)CC2` [P1.17]: the mortality at 400 ppm in assay [1], in assay [11], in assay [3], in [5], in assay [6] and in assay [9] was above 80% in each case. In addition, the mortality at 200 ppm in assay [4] is at least 80%. For the same compound, the pest or weed control at 200 ppm in assay [13] and in [7] was above 80% each time. In addition, in assay [10], the mortality at 25 ppm is above 80%.

On to `CCOC(=O)OC1=C(c2c(C)cc(Br)cc2C)C(=O)N(OCOC)C12CCN(OC)CC2` [P1.19], for which the mortality at 400 ppm in [1], in assay [2], in assay [3], in assay [5] and in assay [8] was above 80% throughout. The compound further showed a mortality at 200 ppm in assay [4] of at least 80%. For the same compound, the pest or weed control at 200 ppm in assay [13] was above 80%. Also, in assay [10], the mortality at 25 ppm was above 80%.

As to `CCOC(=O)OC1=C(c2c(C)cccc2C)C(=O)N(OC)C12CCN(OC)CC2` [P1.74], the mortality at 400 ppm in [1], in [2], in assay [11], in assay [12] and in assay [8] was above 80% each time.

Regarding `CON1CCC2(CC1)C(O)=C(c1c(C)cc(C)cc1C)C(=O)N2O` [P2.4, 1,4-Dihydroxy-8-methoxy-3-(2,4,6-trimethyl-phenyl)-1,8-diaza-spiro[4.5]dec-3-en-2-one], the mortality at 400 ppm in [1], in assay [2], in assay [11], in [5] and in [8] was above 80% each time. Further, in [7], the pest or weed control at 200 ppm is above 80%. Also, the mortality at 25 ppm in [10] is above 80%.

As to `COCON1C(=O)C(c2c(C)cc(C)cc2C)=C(O)C12CCN(OC)CC2` [P2.6, 4-hydroxy-8-methoxy-1-methoxymethoxy-3-(2,4,6-trimethyl-phenyl)-1,8-diaza-spiro[4.5]dec-3-en-2-one], the mortality at 400 ppm in assay [1], in [2], in assay [3], in [12], in assay [5] and in [6] was above 80% each time. Also, the mortality at 400 ppm in assay [8] and in assay [9] was above 80% in each case. Moreover, the mortality at 200 ppm in [4] is at least 80%. The pest or weed control at 200 ppm in [13] and in assay [7] was above 80% each time. In assay [14], the pest or weed control at 400 ppm is above 80%. Further, the mortality at 25 ppm in [10] is above 80%.

For `CON1CCC2(CC1)C(O)=C(c1c(C)cc(C)cc1C)C(=O)N2OC` [P2.7], the mortality at 400 ppm in [1], in assay [3], in assay [12], in assay [5], in assay [6] and in assay [8] was above 80% in each case. The same compound showed a mortality at 200 ppm in assay [4] of at least 80%. The pest or weed control at 200 ppm in [13] and in [7] was above 80% each time. Besides, in assay [10], the mortality at 25 ppm is above 80%.

With `COCON1C(=O)C(c2c(C)cc(Br)cc2C)=C(O)C12CCN(OC)CC2` [P2.14, 3-(4-bromo-2,6-dimethyl-phenyl)-4-hydroxy-8-methoxy-1-methoxymethoxy-1,8-diaza-spiro[4.5]dec-3-en-2-one], the mortality at 400 ppm in assay [1], in [11], in assay [12], in assay [5], in assay [8] and in [9] was above 80% each time. In addition, the pest or weed control at 200 ppm in [13] and in assay [7] was above 80% throughout. Moreover, the mortality at 25 ppm in assay [10] is above 80%.

`CON1CCC2(CC1)C(O)=C(c1c(C)cc(C)cc1C)C(=O)N2OC1CCCO1` (stereo not drawn) [P2.18, 4-Hydroxy-8-methoxy-1-(tetrahydro-furan-2-yloxy)-3-(2,4,6-trimethyl-phenyl)-1,8-diaza-spiro[4.5]dec-3-en-2-one]: the mortality at 400 ppm in assay [1], in assay [11], in assay [3], in assay [12], in assay [5] and in assay [8] was above 80% in each case. This compound returned a mortality at 400 ppm in assay [9] above 80%. This compound also showed a mortality at 200 ppm in assay [4] of at least 80%. The pest or weed control at 200 ppm in assay [13] and in assay [7] was above 80% throughout. Moreover, the mortality at 25 ppm in assay [10] is above 80%.

As for `CON1CCC2(CC1)C(O)=C(c1cc(C)c(C)cc1Cl)C(=O)N2OC1CCCO1` (stereo not drawn) [P2.63], in assay [2], the mortality at 400 ppm was above 80%. For the same compound, the mortality at 200 ppm in assay [4] is at least 80%.
